This note sets out measurements from patent US20230354862A1, “ANTI-DIABETIC COMPOSITION CONTAINING BEET MIXTURE AS ACTIVE INGREDIENT” (BAE RYEO INNOVATION CO., LTD., priority 2021, published 2023).

The structures appear in SMILES notation.

In test [1] the test system is SD rats. Nature of the test: Oral starch tolerance test (OATT). The test is classed as in vivo, rat. Here is the method: As an experimental food, normal mouse feed (Purina Lab Rodent Chow #38057, Purina Co., Seoul Korea) was fed, and during the acclimatization period, filtered water was replaced with fresh one and the animals were allowed access ad libitum to water. During the breeding period, the animals were kept under the following conditions: temperature, 23±1° C.; humidity, 50±5%; noise, 60 phone or less; lighting time, 08:00 to 20:00 (12 hours a day); illumination, 150 to 300 Lux; 10 to 12 ventilations per hour. This experiment was conducted in compliance with the Animal Experimental Ethics Regulations. After completion of the acclimatization period, the experimental animals were divided into groups using the randomized block design based on fasting blood glucose that the mean values between the groups were uniform, and then the animals were marked using an ear punch. […] Changes in blood glucose levels in each group were analyzed based on the measured blood glucose levels. All experimental results were calculated as mean±standard error (mean±S.E.) using the statistical program (SPSS ver. 12.0, SPSS Inc., Chicago, IL, USA). […]

Test [2] has as its system SD rats. Nature of the test: Oral sucrose tolerance test (OSTT). The conditions noted are these: 3 mg/kg acarbose (A 3). The test is classed as in vivo, rat. Here is the method: As an experimental food, normal mouse feed (Purina Lab Rodent Chow #38057, Purina Co., Seoul Korea) was fed, and during the acclimatization period, filtered water was replaced with fresh one and the animals were allowed access ad libitum to water. During the breeding period, the animals were kept under the following conditions: temperature, 23±1° C.; humidity, 50±5%; noise, 60 phone or less; lighting time, 08:00 to 20:00 (12 hours a day); illumination, 150 to 300 Lux; 10 to 12 ventilations per hour. This experiment was conducted in compliance with the Animal Experimental Ethics Regulations. After completion of the acclimatization period, the experimental animals were divided into groups using the randomized block design based on fasting blood glucose that the mean values between the groups were uniform, and then the animals were marked using an ear punch. The animals were divided into a normal group, a control group, a group to which 10 mg/kg of the beet mixture was administered (10 mg/kg Beta vulgaris mixture group), a group to which 30 mg/kg of the beet mixture was administered (30 mg/kg Beta vulgaris mixture group), a group to which 30 mg/kg of the beet mixture was administered (30 mg/kg Beta vulgaris mixture group), and a positive control group (3 mg/kg acarbose), each consisting of 8 animals. Using these groups, an oral sucrose tolerance test (OSTT) and an oral starch tolerance test (OATT) were conducted. […] Changes in blood glucose levels in each group were analyzed based on the measured blood glucose levels. All experimental results were calculated as mean±standard error (mean±S.E.) using the statistical program (SPSS ver. 12.0, SPSS Inc., Chicago, IL, USA). Statistically significant differences between experimental groups were tested using a one-way analysis of variance test (ANOVA), and in case of significance (p<0.05), a post-test was performed with the Duncan's multiple range test.

The subject of test [3] is db/db mice. Nature of the test: Weekly biomarker analysis in type 2 diabetes model (body weight, food and water intake, blood glucose). The test is classed as in vivo, mouse. The conditions noted are these: 300 mg/kg metformin (Met 300). The text has this: (§1) As experimental animals, 5-week-old specific-pathogen free (SPF) male db/db mice were obtained from Central Laboratory Animal, Inc. (Seoul, Korea), and acclimated for 1 week before use in the experiment. As an experimental food, normal mouse feed (Purina Lab Rodent Chow #38057, Purina Co., Seoul Korea) was fed, and during the acclimatization period, filtered water was replaced with fresh one daily and the animals were allowed access ad libitum to water. During the breeding period, the animals were kept under the following conditions: temperature, 23±1° C.; humidity, 50±5%; noise, 60 phone or less; lighting time, 08:00 to 20:00 (12 hours a day); illumination, 150 to 300 Lux; 10 to 12 ventilations per hour. This experiment was conducted in compliance with the Animal Experimental Ethics Regulations.
(§2) After completion of the acclimatization period, the experimental animals were divided into groups using the randomized block design based on fasting blood glucose that the mean values between the groups were uniform, and then the animals were marked using an ear punch. The animals were divided into a normal group, a control group, a group to which 10 mg/kg of the beet mixture was administered (10 mg/kg Beta vulgaris mixture group), a group to which 30 mg/kg of the beet mixture was administered (30 mg/kg Beta vulgaris mixture group), a group to which 30 mg/kg of the beet mixture was administered (30 mg/kg Beta vulgaris mixture group), and a positive control group (300 mg/kg metformin), each consisting of 8 animals. Each sample was orally administered 5 times a week for 3 weeks.
Weekly body weight and blood sugar level were all measured once a week at a certain time, and food intake and water intake were measured the next day after feeding certain amounts of food and water once a week. Weekly blood glucose levels were measured using blood collected from the caudal veins using a blood glucose meter (AutoCheck, Diatech Korea) at a certain time every week. […]
(§3) All experimental results were calculated as mean±standard error (S.E.) using SPSS ver. […]

Test [4] relates to db/db mice. Nature of the test: Oral glucose tolerance test in type 2 diabetes model. Format: in vivo, mouse. The conditions noted are these: 300 mg/kg metformin (Met 300).
Description: as §1
(§4) After completion of the acclimatization period, the experimental animals were divided into groups using the randomized block design based on fasting blood glucose that the mean values between the groups were uniform, and then the animals were marked using an ear punch. […]
as §3

Test [5] has as its system db/db mice. Briefly: Glycated hemoglobin (HbA1c) analysis in type 2 diabetes model. The test is classed as in vivo, mouse. The conditions noted are these: after 3 weeks, 300 mg/kg metformin (Met 300).
Description: as §1, §4, §3

Test [6] deals with db/db mice. Nature of the test: Tissue weight analysis in type 2 diabetes model. The conditions noted are these: 300 mg/kg metformin (Met 300). Format: in vivo, mouse.
Description: as §1, §2
(§5) Weekly body weight and blood sugar level were all measured once a week at a certain time, and food intake and water intake were measured the next day after feeding certain amounts of food and water once a week. Weekly blood glucose levels were measured using blood collected from the caudal veins using a blood glucose meter (AutoCheck, Diatech Korea) at a certain time every week. For autopsy, blood was collected from the abdominal vena cava after inhalation anesthesia and used for blood analysis, and the liver, epididymal fat, pancreas, and kidney were harvested and weighed.
(§6) All experimental results were calculated as mean±standard error (S.E.) using SPSS ver. 12.0 (SPSS Inc., Chicago, IL, USA). Statistically significant differences between experimental groups were tested using a one-way analysis of variance test (ANOVA), and in case of significance (p<0.05), a post-test was performed with the Duncan's multiple range test.

For test [7], the system named is db/db mice. Nature of the test: Hematological (serum) analysis in type 2 diabetes model. The test is classed as in vivo, mouse. The conditions noted are these: 300 mg/kg metformin (Met 300).
Description: as §1, §2, §5
Blood was collected from the abdominal vena cava, placed in conical tubes, coagulated for 30 minutes at room temperature, and then centrifuged at 3,000 rpm for 10 minutes. Analysis of blood fructosamine, TC, TG, LDL-C, HDL-C, and VLDL levels were performed by KPNT (Cheongju, Korea), and insulin analysis was performed using an ELISA kit (Crystalchem, USA). HOMA-IR and HOMA-beta levels were calculated based on the blood analysis results.
as §6

The subject of test [8] is db/db mice. Nature of the test: Histological analysis of β-cell area (insulin immunostaining of pancreas). Format: in vivo, mouse. The conditions noted are these: 300 mg/kg metformin (Met 300).
Description: as §1, with “Regulations. […]” for “Regulations.”
Analysis of the islets of Langerhans in the pancreatic tissue was performed by immunostaining. […] After washing twice with TBST buffer for 5 min, samples were reacted with 2.5% normal goat serum for blocking (Vector, USA) for 20 min, and then the blocking reagent and working insulin antibody (Cell Signaling, MA, USA) solution (2 to 10 μl of antibody to 1 ml of Ready-To-Use 2.5% normal goat serum for blocking) was reacted at 4° C. overnight. […]
as §3

In the case of `C[C@H]1O[C@H](O[C@H]2[C@H](O)[C@@H](O)[C@@H](O[C@H]3[C@H](O)[C@@H](O)C(O)O[C@@H]3CO)O[C@@H]2CO)[C@H](O)[C@@H](O)[C@@H]1N[C@H]1C=C(CO)[C@@H](O)[C@H](O)[C@H]1O` (stereo partly drawn) [acarbose], the “change in blood glucose after starch administration (AUC)” value in test [1] (3 mg/kg acarbose (A 3)) was 197.32 ± 7.12 mg/dL. Besides, the “blood glucose level at 30 min after starch administration” value in test [1] (3 mg/kg acarbose oral (A 3)) came to 90.63 ± 3.80 mg/dL. Also, in test [2], the “blood glucose level at 30 min after sucrose administration” value turned out to be 95.88 ± 3.20 mg/dL, the “blood glucose level at 120 min after sucrose administration” value was found to be 80.38 ± 1.76 mg/dL and the “change in blood glucose level after sucrose administration (AUC)” value came out at 197.32 ± 7.12 mg/dL.
As for `CN(C)C(=N)N=C(N)N` [metformin], in test [3], the “blood glucose level at 1 week after sample administration” value is 167.0 ± 19.1 mg/dL, the “blood glucose level at 3 weeks after sample administration” value came to 238.8 ± 21.9 mg/dL and the “body weight at week 3” value worked out at 34.04 ± 0.35 g. In addition, in test [4], the “blood glucose level at 30 min after oral glucose administration” value was determined as 382.0 ± 31.0 mg/dL and the “change in blood glucose level after glucose administration (OGTT AUC)” value is 778.06 ± 262.53 mg/dL. In addition, in test [5], the HbA1c level came out at 6.79±0.29%. In test [6] (after 3 weeks), this compound returned a kidney tissue weight of 0.303 ± 0.008 g and a liver tissue weight of 1.97 ± 0.06 g. In test [6] (at autopsy), the “epididymal fat tissue weight” value was found to be 1.761 ± 0.038 g and the pancreatic tissue weight stood at 0.116 ± 0.005 g. Moreover, in test [7], the “HOMA-IR level (insulin resistance)” value worked out at 0.975±0.199, the “HOMA-β level (insulin secretion ability)” value is 6.863±0.404, the “serum HDL cholesterol level” value turned out to be 105.09 ± 2.63 mg/dL and the serum fructosamine level amounted to 319.13 ± 10.89 µmol/L. Besides, in test [7], the “serum total cholesterol level” value is 126.50 ± 2.24 mg/dL. For the same compound, in test [7] (after 3 weeks), the LDL cholesterol level was 12.94 ± 0.84 mg/dL, the serum insulin level came out at 12.94 ± 0.84 ng/mL and the serum triglyceride level came out at 236.13 ± 11.87 mg/dL. In test [8], this compound showed a β-cell area of 83242.23±11320.56 μm^2.
